Data reported in US20110053897A1 (IRM LLC, priority 2009, published 2011).
Where two headings read alike, the source gives them in different places.

Target: T1, Syk kinase (Homo sapiens, UniProt P43405)
T1 construct: purchased
Test: Syk kinase inhibition, Caliper LabChip off-chip mobility-shift kinase assay
Assay type: biochemical
Settings: read-out: Syk Enzyme IC50
In short: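 Purified Syk pre-incubated 15 min with compound in 100 mM HEPES pH 7.5, 1 mM DTT, 10 mM MgCl2 or MnCl2, 0.002% Brij-35, then 1.5 μM fluorescein peptide and ATP at apparent KM added; 1–1.5 h at room temperature, 4% DMSO, EDTA stop. Microfluidic mobility-shift product/substrate conversion gave % inhibition; IC50 from 12-point series (10–0.00003 μM) by 4-parameter fit.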

`CC(C)(C)Nc1nc(Nc2cc(C3(CO)CC3)ccn2)cc2ccn(CCO)c(=O)c12` [compound 860] gave an IC50 (Caliper LabChip assay) of 28 nM.

Compound `CC(C)(C)Nc1nc(Nc2cc(-c3ccncc3)ccn2)cc2ccn(CCO)c(=O)c12` [compound 842] has an IC50 (Caliper LabChip assay) of 51 nM.

`COc1cncc(-c2cc3cc[nH]c(=O)c3c(Nc3ccc(C4CN(CCC#N)C4)cc3)n2)n1` [compound 153] gave an IC50 of 32 nM.

With `CC(C)(C)Nc1nc(Nc2cc(CO)ccn2)cc2ccn(CC(=O)O)c(=O)c12` [compound 875] the IC50 (Caliper LabChip assay) was 6 nM.

For `CC1(Nc2nc(Nc3cc(C(C)(C)O)ncn3)cc3ccn(CC(N)=O)c(=O)c23)CC1` [compound 620], the IC50 (Caliper LabChip assay) was 148 nM.

`C[C@@H]1CN([C@H]2CC[C@H](c3ccc(Nc4nc(-c5cncnc5)cc5cc[nH]c(=O)c45)cc3)CC2)CCO1` [compound 93] gave an IC50 of 433 nM.

With `CCC(C)Nc1nc(Nc2ccccn2)cc2cc[nH]c(=O)c12` (stereo not shown) [compound 263] the IC50 was 756 nM.

`COc1cncc(-c2cc3cc[nH]c(=O)c3c(Nc3ccc(C4CCN(C(C)C(N)=O)CC4)c(C)c3)n2)n1` (stereo not shown) [compound 136] showed an IC50 of 46 nM.

`CC(C)(C)Nc1nc(Nc2cc(C(C)(C)O)ncn2)cc2ccn(CCO)c(=O)c12` [compound 716] was tested, and the IC50 (Caliper LabChip assay) was 35 nM.

With `Cc1cc(Nc2nc(Nc3ccc(C#N)cn3)cc3cc[nH]c(=O)c23)ccc1N1CCO[C@H](C)C1` [compound 557] the IC50 was 3350 nM.

In the case of `Nc1ncc(-c2cc3ccn(CCO)c(=O)c3c(N[C@H]3CC[C@@H](CO)C3)n2)cn1` [compound 912], the IC50 (Caliper LabChip assay) is reported as 2 nM.

Work on `Cc1ccnc(Nc2cc3cc[nH]c(=O)c3c(N[C@H]3CC[C@@H](O)CC3)n2)c1` [compound 303] yielded an IC50 of 17 nM.

`CCn1ccc2cc(Nc3cc(C)ccn3)nc(NC3CCCC(O)C3)c2c1=O` (stereo not shown) [compound 972] gave an IC50 (Caliper LabChip assay) of 59 nM.

In the case of `COc1cncc(-c2cc3cc[nH]c(=O)c3c(Nc3ccc(C4CCN(C(=O)N5CCCC5)CC4)c(C)c3)n2)n1` [compound 113], the IC50 is reported as 2320 nM.

`CC(C)(C)CNc1nc(Nc2cnccn2)cc2ccn(CCO)c(=O)c12` [compound 898] showed an IC50 (Caliper LabChip assay) of 20 nM.

For `COc1cncc(-c2cc3cc[nH]c(=O)c3c(Nc3ccc(C4=CCNCC4)c(C)c3)n2)n1` [compound 13], the IC50 was 38 nM.

Work on `CC(C)(C)Nc1nc(Nc2cnccn2)cc2ccn(CC(F)F)c(=O)c12` [compound 1023] yielded an IC50 (Caliper LabChip assay) of 179 nM.

In the case of `Cc1cc(Nc2nc(-c3ccnc(N)n3)cc3cc[nH]c(=O)c23)ccc1C1CCN(CCC#N)CC1` [compound 67], the IC50 is reported as 328 nM.

`COCCCc1cc2cc[nH]c(=O)c2c(Nc2ccc(N3CCO[C@H](C)C3)c(C)c2)n1` [compound 239] gave an IC50 of 2220 nM.

For `Cc1ccnc(Nc2cc3ccn(CCN4CCOCC4)c(=O)c3c(NC(C)(C)C)n2)c1` [compound 997], the IC50 (Caliper LabChip assay) was 296 nM.

With `C[C@@H](CO)Nc1nc(Nc2ccccn2)cc2cc[nH]c(=O)c12` [compound 298] the IC50 was 155 nM.

`CC(C)(C)Nc1nc(Nc2cc(C(C)(C)O)ncn2)cc2ccn(C(CO)CO)c(=O)c12` [compound 741] showed an IC50 (Caliper LabChip assay) of 22.2 nM.

Compound `CCN1CCN(CCc2ccc(Nc3nc(-c4cnn(CC(C)C)c4)cc4c(F)c[nH]c(=O)c34)cc2)CC1` [compound 445] has an IC50 of 300 nM.

`CC(C)(C)Nc1nc(Nc2cc(-c3ccc4[nH]ncc4c3)ccn2)cc2ccn(CCO)c(=O)c12` [compound 851] showed an IC50 (Caliper LabChip assay) of 222 nM.

Compound `Cn1cc(-c2cc3cc[nH]c(=O)c3c(Nc3ccc([C@H]4CC[C@H](N5CCOCC5)CC4)cc3)n2)cn1` [compound 99] has an IC50 of 168 nM.

`C[C@H](CO)Nc1nc(Nc2ccccn2)cc2cc[nH]c(=O)c12` [compound 299] was tested, and the IC50 was 68 nM.

With `CC(CO)c1ccnc(Nc2cc3ccn(CCO)c(=O)c3c(NC(C)(C)C)n2)c1` (stereo not shown) [compound 864] the IC50 (Caliper LabChip assay) was 2 nM.

With `COc1ncc(-c2cc3cc[nH]c(=O)c3c(Nc3ccc(CCN4CCCN(C)CC4)cc3)n2)cn1` [compound 436] the IC50 was 140 nM.

For `COCCNc1nc(-c2cnc(N)nc2)cc2cc[nH]c(=O)c12` [compound 447], the IC50 was 101 nM.

`CC1(Cn2ccc3cc(-c4cnc(N)nc4)nc(NC4CCCC4)c3c2=O)COC1` [compound 760] gave an IC50 (Caliper LabChip assay) of 128 nM.

In the case of `COc1cncc(-c2cc3cc[nH]c(=O)c3c(Nc3ccc(C4CCN(C(C)CC#N)CC4)c(C)c3)n2)n1` (stereo not shown) [compound 171], the IC50 is reported as 160 nM.

`Cc1cc(Nc2cc3ccn(CCO)c(=O)c3c(NC(C)(C)CO)n2)ncc1Cl` [compound 497] showed an IC50 of 111 nM.

`CCn1ccc2cc(Nc3cnccn3)nc(N[C@H]3CCC[C@H]3O)c2c1=O` (racemic) [compound 354] gave an IC50 of 18 nM.

`CC[C@H](C)Nc1nc(Nc2ccccn2)cc2cc[nH]c(=O)c12` [compound 290] showed an IC50 of 271 nM.

`COc1ccc(Nc2nc(Nc3cnccn3)cc3ccn(C)c(=O)c23)cc1` [compound 365] was tested, and the IC50 was 361 nM.

`COc1cncc(-c2cc3cc[nH]c(=O)c3c(Nc3ccc(C4CCN(C(C)C(=O)NCCO)CC4)c(C)c3)n2)n1` (stereo not shown) [compound 122] was tested, and the IC50 was 92 nM.

Work on `CCn1ccc2cc(Nc3cc(C)c(F)cn3)nc(N[C@@H](C)CO)c2c1=O` [compound 395] yielded an IC50 of 85 nM.

`CC1(Nc2nc(-c3cnc(N)nc3)cc3ccn(C4COC4)c(=O)c23)CCC1` [compound 931] was tested, and the IC50 (Caliper LabChip assay) was 15 nM.

`CC(C)(C)Nc1nc(-c2cnc(N)nc2)cc2ccn(CCN3CCOCC3)c(=O)c12` [compound 1033] was tested, and the IC50 (Caliper LabChip assay) was 60 nM.

`COc1cncc(-c2cc3cc[nH]c(=O)c3c(Nc3ccc(C4CCN(CCC(C)(C)C)CC4)c(C)c3)n2)n1` [compound 61] was tested, and the IC50 was 158 nM.

With `CCn1ccc2cc(Nc3cnccn3)nc(N[C@H]3CC[C@H](CO)C3)c2c1=O` [compound 827] the IC50 (Caliper LabChip assay) was 12 nM.

`CC(C)(C)Nc1nc(-c2cnc(N)nc2)cc2ccn(CCS(C)(=O)=O)c(=O)c12` [compound 737] gave an IC50 (Caliper LabChip assay) of 20 nM.

With `[2H]C([2H])([2H])n1ccc2cc(Nc3cnccn3)nc(N[C@@H](C)CO)c2c1=O` [compound 402] the IC50 was 45.7 nM.

Compound `[2H]C([2H])([2H])n1ccc2cc(Nc3cnccn3)nc(N[C@H]3CC[C@H](O)CC3)c2c1=O` [compound 984] has an IC50 (Caliper LabChip assay) of 29 nM.

Compound `CC(C(N)=O)n1ccc2cc(Nc3cnccn3)nc(NC(C)(C)C)c2c1=O` (stereo not shown) [compound 660] has an IC50 (Caliper LabChip assay) of 13 nM.

With `Cn1ccc2cc(Nc3cnccn3)nc(Nc3cccc(C(N)=O)c3)c2c1=O` [compound 477] the IC50 was 580 nM.

`O=c1[nH]ccc2cc(Nc3ccc(Cl)cn3)nc(Nc3ccc(N4CCOCC4)cc3)c12` [compound 526] was tested, and the IC50 was 803 nM.

With `Cc1ccnc(Nc2cc3ccn(C)c(=O)c3c(Nc3cc(C)ccn3)n2)c1` [compound 569] the IC50 was 701 nM.

`C[C@@H](CO)Nc1nc(Nc2cnccn2)cc2ccn(CCO)c(=O)c12` [compound 373] was tested, and the IC50 was 27 nM.

Compound `CC(C)n1ccc2cc(-c3cnc(N)nc3)nc(N[C@H]3CC[C@@H](CO)C3)c2c1=O` [compound 1030] has an IC50 (Caliper LabChip assay) of 48 nM.

With `CN1CCC(Oc2cc(Nc3cc4ccn(CCO)c(=O)c4c(NC(C)(C)C)n3)ncn2)CC1` [compound 648, 8-(tert-butylamino)-2-(2-hydroxyethyl)-6-(6-(1-methylpiperidin-4-yloxy)pyrimidin-4-ylamino)-2,7-naphthyridin-1(2H)-one] the IC50 (Caliper LabChip assay) was 6 nM.

Work on `CC1(Nc2nc(Nc3cc(C(O)C(F)(F)F)ccn3)cc3ccn(CC(N)=O)c(=O)c23)CC1` (stereo not shown) [compound 614] yielded an IC50 (Caliper LabChip assay) of 66 nM.

`CCn1ccc2cc(-c3cnc(N)nc3)nc(N[C@H]3CC[C@H](O)CC3)c2c1=O` [compound 1032] showed an IC50 (Caliper LabChip assay) of 46 nM.

Work on `CCn1ccc2cc(Nc3cnccn3)nc(N[C@H]3CC[C@@H](O)CC3)c2c1=O` [compound 356] yielded an IC50 of 10 nM.

`CC1(Cn2ccc3cc(-c4cnc(N)nc4)nc(NC(C)(C)C)c3c2=O)COC1` [compound 924] gave an IC50 (Caliper LabChip assay) of 13 nM.
